In ChEMBL document CHEMBL5634204, “Goondansamycins A-H: Benzenoid Ansamycins from an Australian Volcanic Crater Soil-Derived Actinomadura sp. S4S-00069B08” (J Nat Prod, 2024):

Legend:
Escherichia coli = test: Antibacterial activity against Escherichia coli ATCC 11775 assessed as inhibition of bacterial growth incubated for 24 hrs by spectrophotometry; format: functional, organism-based; conditions: ATCC 11775, 24 h
Staphylococcus aureus = test: Antibacterial activity against Staphylococcus aureus ATCC 25923 assessed as inhibition of bacterial growth incubated for 24 hrs by spectrophotometry; format: functional, organism-based; conditions: ATCC 25923, 24 h
NCI-H460 = test: Cytotoxicity against human NCI-H460 cells assessed as inhibition of cell growth incubated for 48 hrs by MTT assay; format: functional, cell-based; conditions: NCI-H460, 48 h
Candida albicans = test: Antifungal activity against Candida albicans ATCC 10231 assessed as inhibition of fungal growth incubated for 48 hrs by spectrophotometry; format: functional, organism-based; conditions: ATCC 10231, 48 h
SW-620 = test: Cytotoxicity against human SW620 cells assessed as inhibition of cell growth incubated for 48 hrs by MTT assay; format: functional, cell-based; conditions: SW-620, 48 h

Measured: IC50

CCC(=O)[C@@H](C)C/C(C)=C/[C@@H](C)[C@H](O[C@@H]1CC[C@@H](O)[C@@H](C)O1)C1=CC(=O)C=C(N)C1=O
> 30 µM: all assays above

C/C1=C\[C@@H](C)[C@H](O[C@@H]2CC[C@@H](O)[C@@H](C)O2)c2cc(O)cc3c2O[C@](C)(C(=O)N3)C(=O)[C@@H](C)C1
> 30 µM: all assays above

C/C1=C\[C@@H](C)[C@H](O)c2cc(O)cc3c2O[C@](C)(C(=O)N3)C(=O)[C@H](C)C1
> 30 µM: all assays above

C/C1=C\[C@@H](C)[C@H](O[C@@H]2CC[C@@H](O)[C@@H](C)O2)C2=CC(=O)C(N)=C(NC(=O)C(C)C(=O)[C@@H](C)C1)C2=O (stereo not given in full)
> 30 µM: all assays above

C/C1=C\[C@@H](C)[C@H](O)c2cc(O)cc(c2O)NC(=O)[C@@H](C)C(=O)[C@@H](C)C1
> 30 µM: all assays above

C/C1=C\C(C)C(O)c2cc(O)cc3c2OC(CO)(C(=O)N3)C(=O)C(C)C1 (stereo not given)
> 30 µM: all assays above

C/C1=C\[C@@H](C)[C@H](O)C2=CC(=O)C(N)=C(NC(=O)C(C)C(=O)[C@@H](C)C1)C2=O (stereo not given in full)
> 30 µM: all assays above

C/C1=C\[C@@H](C)[C@H](O)c2cc(O)cc3c2O[C@](C)(C(=O)N3)C(=O)[C@@H](C)C1
> 30 µM: all assays above

C/C1=C\C(C)C(O)c2cc(O)cc3c2OC(C)(C(=O)N3)C(=O)C(C)C1 (stereo not given)
> 30 µM: all assays above

C/C1=C\[C@@H](C)[C@H](O[C@@H]2CC[C@H](O)[C@@H](C)O2)c2cc(O)cc3c2O[C@](C)(C(=O)N3)C(=O)[C@@H](C)C1
> 30 µM: all assays above
